Experimental data from BindingDB's records for patent US20240316020 (Icagen, 2024).

Target: Potassium voltage-gated channel subfamily KQT member 2 (Homo sapiens, UniProt O43526)
Experiment: SyncroPatch 384 (Nanion) High Throughput Electrophysiology
Procedure: Human Kv7.2, Kv7.4 or Kv7.5/7.3 channels were evaluated using a voltage protocol in which cells were voltage-clamped at a holding potential of -60 mV. Potassium currents were continuously activated with a series of three voltage steps to -30 mV for 3 seconds, 40 mV for 1 second and -90 mV for 4 seconds with 12 seconds between successive voltage sweeps. Potassium currents were measured from the -90 mV repolarizing step. Baseline current was assessed for 3.5 minutes prior to the addition of 5.6 uM zinc pyrithione (1 uM for Kv7.4). Kv7.2, Kv7.4 or Kv7.5/7.3 current in the presence of zinc pyrithione was acquired over five minutes to allow channels to reach steady state activity prior to addition of test agents. Channel activity was monitored for three minutes preceding the addition of 30 uM ML-213 (3 minutes) to achieve maximum activation.

Chain of Potassium voltage-gated channel subfamily KQT member 2 (O43526 whole entry): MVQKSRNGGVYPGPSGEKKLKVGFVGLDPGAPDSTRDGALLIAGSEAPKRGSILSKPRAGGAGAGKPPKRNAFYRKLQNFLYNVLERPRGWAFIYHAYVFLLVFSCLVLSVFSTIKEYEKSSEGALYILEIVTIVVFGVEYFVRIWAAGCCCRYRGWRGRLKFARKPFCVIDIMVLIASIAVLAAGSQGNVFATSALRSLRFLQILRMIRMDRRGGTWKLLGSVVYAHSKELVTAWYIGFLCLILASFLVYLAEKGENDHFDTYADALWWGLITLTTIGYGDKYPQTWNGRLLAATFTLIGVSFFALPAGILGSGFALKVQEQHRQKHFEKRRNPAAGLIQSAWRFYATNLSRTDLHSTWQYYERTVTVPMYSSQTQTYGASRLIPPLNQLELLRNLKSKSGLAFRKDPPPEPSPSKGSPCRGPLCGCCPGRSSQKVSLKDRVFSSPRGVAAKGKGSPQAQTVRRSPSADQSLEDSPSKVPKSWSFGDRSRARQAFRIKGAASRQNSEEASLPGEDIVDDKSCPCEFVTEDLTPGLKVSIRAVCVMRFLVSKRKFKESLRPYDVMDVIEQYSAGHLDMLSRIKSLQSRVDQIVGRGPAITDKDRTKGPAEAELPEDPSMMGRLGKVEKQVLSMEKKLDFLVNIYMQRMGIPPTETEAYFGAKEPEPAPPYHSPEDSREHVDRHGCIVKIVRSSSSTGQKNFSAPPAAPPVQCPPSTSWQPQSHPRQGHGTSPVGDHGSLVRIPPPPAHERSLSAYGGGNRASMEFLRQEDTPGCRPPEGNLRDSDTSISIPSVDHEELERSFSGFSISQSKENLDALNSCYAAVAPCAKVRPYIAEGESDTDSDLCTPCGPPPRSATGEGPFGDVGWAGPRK

## O=C(NCc1ccnc(-n2cccn2)c1)NC1COC2(CCCC2)C1 (stereo unspecified) [US20240316020, Example 1]
  EC50: 3.63 µM
